# Reference: patent US20070037752A1, “Novel alanyl-amino peptidase inhibitors for functionally influencing different cells and treating immunological, inflammatory, neuronal, and other diseases” (priority 2003, published 2007)
# Molecular target: alanyl aminopeptidases (APN) (Homo sapiens, UniProt P15144)
# Experiment: Inhibition of alanyl aminopeptidase enzymatic activity, fluorogenic substrate (Ala)2-rhodamine 110
# Type: biochemical
# Details: Table 2; read-out: IC50APN
# Procedure: The inhibition characteristics measured are referred to as IC-50 values or ID50 values (the latter marked with “*”) for said enzyme. The enzymatic activity was determined by means of the fluorogenic substrate/product (Ala)2-rhodamine 110.
# Chain of alanyl aminopeptidases (APN) (P15144 whole entry, species assumed): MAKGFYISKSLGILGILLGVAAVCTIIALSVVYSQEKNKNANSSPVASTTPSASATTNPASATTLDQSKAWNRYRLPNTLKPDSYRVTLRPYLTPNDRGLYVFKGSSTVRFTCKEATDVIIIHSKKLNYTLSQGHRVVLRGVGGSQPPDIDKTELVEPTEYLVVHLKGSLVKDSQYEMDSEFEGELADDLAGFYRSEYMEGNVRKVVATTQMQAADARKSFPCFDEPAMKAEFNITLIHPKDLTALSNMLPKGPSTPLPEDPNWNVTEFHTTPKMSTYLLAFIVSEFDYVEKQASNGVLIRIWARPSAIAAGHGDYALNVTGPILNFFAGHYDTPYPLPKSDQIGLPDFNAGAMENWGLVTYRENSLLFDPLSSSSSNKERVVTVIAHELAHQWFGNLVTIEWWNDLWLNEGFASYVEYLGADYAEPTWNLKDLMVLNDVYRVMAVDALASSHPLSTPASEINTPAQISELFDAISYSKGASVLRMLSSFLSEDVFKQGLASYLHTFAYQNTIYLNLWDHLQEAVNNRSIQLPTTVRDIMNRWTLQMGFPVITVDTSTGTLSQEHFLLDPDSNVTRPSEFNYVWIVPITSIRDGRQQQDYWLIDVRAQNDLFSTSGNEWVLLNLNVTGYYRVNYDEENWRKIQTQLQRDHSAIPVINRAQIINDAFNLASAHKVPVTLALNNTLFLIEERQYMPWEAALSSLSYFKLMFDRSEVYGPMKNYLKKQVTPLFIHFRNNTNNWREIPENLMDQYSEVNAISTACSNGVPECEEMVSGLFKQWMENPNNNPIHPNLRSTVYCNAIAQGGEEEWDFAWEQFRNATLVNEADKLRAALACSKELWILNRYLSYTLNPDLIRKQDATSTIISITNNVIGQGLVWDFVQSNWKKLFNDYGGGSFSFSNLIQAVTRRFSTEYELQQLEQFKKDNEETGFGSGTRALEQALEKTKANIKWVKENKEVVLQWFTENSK
row,Structure (SMILES),IC50 [µM]
1,N/C(=N\N=C\c1ccco1)c1nonc1N [A2.007],14.6

# Same assay, conditions: Table 3, starred values = ID50; read-out: ID50 APN (values marked with *)
row,Structure (SMILES),IC50 [µM]
1,O=C(N/N=C/c1ccco1)c1cc(-c2ccccc2Cl)n[nH]1 [A3.303],75.8
2,CN(C)c1ccc(C2NCCS2)cc1 (stereo not shown) [A3.338],230
3,Cc1cccc(C(=O)Nc2ccc(C(=O)N/N=C/c3ccco3)cc2)c1 [A3.293],67.1
4,C/C(=C\c1ccc(C(C)C)cc1)C1NCC(c2ccc([N+](=O)[O-])cc2)O1 (stereo not shown) [A3.345],293
5,O=C(CNC(=O)c1ccccc1Br)N/N=C/c1ccco1 [A3.314],91.2
6,CC(C)(C)c1ccc2c(c1)C1c3ccc(C(C)(C)C)cc3C2C2C(=O)N(c3cccc(Cl)c3)C(=O)C12 (stereo not shown) [A3.348],321

# Same assay, conditions: Table 3, unstarred values; read-out: IC50APN
row,Structure (SMILES),IC50 [µM]
1,O=C(OCC1CCCO1)c1cc([N+](=O)[O-])cc([N+](=O)[O-])c1 (stereo not shown) [A3.231],39.3
2,Cc1ccc(S(=O)(=O)N2CCC(C(=O)N/N=C/c3ccco3)CC2)cc1 [A3.298],69.3
3,O=C(N/N=C\c1ccco1)c1ccc(S(=O)(=O)N2CCCCCC2)cc1 [A3.029],8
4,O=C(O)c1ccc2c(c1)C(=O)/C(=C\c1ccco1)C2=O [A3.144],23.7
5,CN1C/C(=C/c2ccco2)C(=O)/C(=C/c2ccco2)C1 [A3.098],19.2
6,COc1ccc(C(=O)/C=C/c2ccc(-c3ccccc3)o2)cc1 [A3.236],41.2
7,CCOC(=O)c1cc(-c2ccc(/C=C3/C(=O)NC(=O)C(C#N)=C3C)o2)ccc1Cl [A3.268],52.1
8,CCOC(=O)C1C(C)C2C3C(=O)N(c4cccc5ccccc45)C(=O)C3C1(C)C1C(=O)N(c3cccc4ccccc34)C(=O)C21 (stereo not shown) [A3.027],7.4
9,COc1ccc(OC)c(NC(=O)/C=C/c2ccc(C)o2)c1 [A3.277],56.8
10,C=CC[N+]1=C(/C=C2\SC(c3ccccc3)=C(c3ccccc3)N2CC)S/C(=C/C=C2\SC(c3ccccc3)=C(c3ccccc3)N2CC)C1=O [A3.045],11.1
11,Cc1ccc(C(=O)N/C(=C/c2ccco2)C(=O)N(C)C)cc1 [A3.198],32.5
12,C/C(Cn1nnc([N+](=O)[O-])n1)=N/NC(=O)COc1ccccc1[N+](=O)[O-] [A3.010],3.4
13,O=C(Nc1ccccc1C(=O)N/N=C/c1ccco1)c1ccc(Cl)cc1Cl [A3.092],18.7
14,Cc1ccc(OCC(=O)N/N=C/c2ccco2)cc1C [A3.218],36.3
15,COc1ccc(C2(CNC(=O)/C=C/c3ccco3)CCCC2)cc1OC [A3.162],26.6
16,O=C(N/N=C/c1ccco1)c1cccc(NC(=O)c2cccc(Br)c2)c1 [A3.131],22.4
17,COc1c(OCC(O)C(C)(C)O)ccc2c1N=C1OC=CC1C2OC (stereo not shown) [A3.321],125
18,O=C(N/N=C/c1ccco1)c1cccc(I)c1 [A3.212],34.7
19,Oc1ccc(Cl)cc1/N=C/c1ccc(-c2ccc(F)cc2)o1 [A3.305],77.3
20,CC1=C(C#N)C(O)=NC(=O)/C1=C/c1ccc(-c2ccc(Cl)cc2Cl)o1 [A3.197],32.4
21,O=C(Cc1cccs1)N/N=C\c1ccco1 [A3.329],143
22,COc1cc(-c2cc(C(=O)N/N=C/c3ccco3)[nH]n2)ccc1OC(C)C [A3.216a],36.1
23,CC1=C(C#N)C(O)=NC(=O)/C1=C/c1ccc(-c2ccc(Cl)c(C(=O)OC(C)C)c2)o1 [A3.120],21.4
24,CCOc1ccc(Br)cc1C(=O)N/N=C/c1ccco1 [A3.155],25.8
25,Cc1cccc(C(=O)Nc2ccc(C(=O)N/N=C/c3ccc(C)o3)cc2)c1 [A3.106],20.2
26,CCN(CC)C(=O)/C(=C/c1ccco1)NC(=O)c1ccccc1 [A3.054],12.8
27,O=C(N/C(=C\c1ccco1)C(=O)N1CCCCC1)c1ccco1 [A3.040],10.6
28,CCCOC(=O)c1cc(-c2ccc(/C=C3\C(=O)NC(=O)C(C#N)=C3C)o2)ccc1Cl [A3.221],36.8
29,O=C(N/N=C/c1cc(Br)c(O)c(Br)c1O)/C(=C\c1ccc2c(c1)OCO2)NC(=O)c1ccccc1 [A3.143],23.6

# Same assay, conditions: Table 4, starred values = ID50; read-out: ID50 APN (values marked with *)
row,Structure (SMILES),IC50 [µM]
1,Cc1ccc(OCC(=O)N/N=C/c2c(Br)cc(Br)c(O)c2Br)c(Br)c1 [A4.147],54.2
2,COc1ccc(CSCC(=O)N/N=C/c2ccco2)cc1 [A4.157],66
3,O=C(N/N=C/c1ccco1)c1ccc([N+](=O)[O-])cc1 [A4.185],305
4,O=C(CNC(=O)c1ccccc1Br)N/N=C/c1ccco1 [A4.171],91.2
5,Cc1ccc(OCC(=O)N/N=C\c2ccco2)c(C)c1 [A4.168],81.8

# Same assay, conditions: Table 4, unstarred values; read-out: IC50APN
row,Structure (SMILES),IC50 [µM]
1,Cc1ccc(/C=N\NC(=O)Cc2cccs2)o1 [A4.144],51.1
2,O=C(N/C=C1/C(=O)Nc2ccc(F)cc21)/C(=C/c1ccccc1)NC(=O)c1ccccc1 [A4.130],44.2
3,COc1cc(/C=N/NC(=O)/C(=C/c2cccs2)NC(=O)c2ccccc2)cc([N+](=O)[O-])c1O [A4.076],25.1
4,COc1ccc(/C=N/NC(=O)C2=C(C)Nc3ccccc3S2)cc1Cn1nc(C)c(Br)c1C [A4.002],4.8
5,COc1ccc(/C=C(/NC(=O)c2ccccc2)C(=O)N/N=C\C=C\c2ccc(C)o2)cc1OC [A4.041],16.7
6,COc1cc(Br)cc(Br)c1OCC(=O)N/N=C/c1cc(O)c(O)c(Br)c1Br [A4.010],7.2
7,O=C(N/N=C/c1cc([N+](=O)[O-])ccc1O)c1ccc(O)cc1O [A4.054],20.2
8,COc1ccc(OCC(=O)N/N=C/c2cc(Br)c(O)c(O)c2Br)c(Br)c1 [A4.033],15
9,O=C(N/N=C\c1ccco1)c1ccc(Br)cc1 [A4.074],24.5
10,Cc1ccc(/C=N/NC(=O)c2ccc(F)cc2)o1 [A4.108],34.4
11,COc1cc(/C=N/NC(=O)/C(=C\c2ccc(N(C)C)cc2)NC(=O)c2ccccc2)cc([N+](=O)[O-])c1O [A4.069],23
12,O=C(CNC(=O)c1ccccc1F)N/N=C/c1ccc([N+](=O)[O-])o1 [A4.150],60

# Same assay, conditions: Table 5, starred values = ID50; read-out: ID50 APN (values marked with *)
row,Structure (SMILES),IC50 [µM]
1,CC(C)Oc1ccc(/C=N/CCC2(c3ccccc3)CCOC(C)(C)C2)cc1 (stereo not shown) [A5.007],197

# Same assay, conditions: Table 7; read-out: IC50APN
row,Structure (SMILES),IC50 [µM]
1,Cc1cccc(C)c1NC(=S)NC(=O)c1cccs1 [A7.007],12.9
2,CSCCC1NC(=S)N(Cc2ccccc2)C1=O (stereo not shown) [A7.008],14.1

# Same assay, conditions: Table 8, starred values = ID50; read-out: ID50 APN (values marked with *)
row,Structure (SMILES),IC50 [µM]
1,O=C(O)CC1S/C(=N/N=C/c2ccco2)NC1=O (stereo not shown) [A8.031],48.1

# Same assay, conditions: Table 8, unstarred values; read-out: IC50APN
row,Structure (SMILES),IC50 [µM]
1,O=C1C(Cc2ccccc2)NC(=S)N1c1ccccc1 (stereo not shown) [A8.020],26.1
2,CCOC(=O)N1CCc2c(sc(NC(=O)c3ccc(F)cc3)c2C(=O)Nc2ccc(Br)cc2)C1 [A8.005],7.3
3,CCc1cccc(CC)c1NC(=S)N/N=C1\C(=O)N(CN2CC(C)CC(C)C2)c2ccccc21 (stereo not shown) [A8.004],6.7

# Same assay, conditions: Table 9, unstarred values; read-out: IC50APN
row,Structure (SMILES),IC50 [µM]
1,O=c1[nH]cc([N+](=O)[O-])cc1C(F)(F)F [A9.077],29.9
2,COC(=O)c1cc(-c2ccc(/C=C3\C(=O)N(CCCO)C(=O)C(C#N)=C3C)o2)ccc1Cl [A9.036],15.2
3,CO/N=C(\c1nonc1N)N1CCN(c2ccc([N+](=O)[O-])cc2Cl)CC1 [A9.045],19.2
4,O=c1[nH]c(/C=C/c2ccco2)nc2ccccc12 [A9.035],14.6
5,C=CCN1C(=O)C(C#N)=C(C)/C(=C\c2ccc(-c3cc(C)c(C)cc3[N+](=O)[O-])o2)C1=O [A9.076],29.3
6,O=C(N/N=C/c1ccco1)c1ccc(=O)[nH]n1 [A9.058],22.4
7,CCOC(=O)c1cc(-c2ccc(/C=C3/C(=O)NC(=O)C(C#N)=C3C)o2)ccc1Cl [A9.099],52.1
8,Cc1nc(NC(C)C(=O)O)c2nc(C)oc2n1 (stereo not shown) [A9.108],65.8
9,CCOC(=O)c1cc(Br)ccc1-c1ccc(/C=C2\C(=O)N=C(O)C(C#N)=C2C)o1 [A9.098],49.9
10,CC(=O)NC1OCC(O)C(O)C1O (stereo not shown) [A9.014],7.3
11,CC1=C(C#N)C(O)=NC(=O)/C1=C/c1ccc(-c2ccc(Cl)c(C(=O)OC(C)C)c2)o1 [A9.053],21.3
12,CCCCCCCSc1nnc2c(n1)OC(C(=O)c1ccccc1)=Nc1ccccc1-2 [A9.074],28.9
13,CCCOC(=O)C(NC(=O)c1ccc(OC)cc1)(N1CCOCC1)C(F)(F)F (stereo not shown) [A9.115],90.2
14,O=[N+]([O-])c1ncn(CN2CCOCC2)n1 [A9.090],36.8
15,O=C(/C=C/c1ccco1)Nc1ccc(OCC(=O)N2CCOCC2)cc1 [A9.056],21.9

# Same assay, conditions: Table 11; read-out: IC50APN
row,Structure (SMILES),IC50 [µM]
1,O=C(N/N=C/c1cccc([N+](=O)[O-])c1)c1ccco1 [A11.029],45.4
2,COc1cccc(C(=O)NCC(=O)N/N=C/c2ccc([N+](=O)[O-])o2)c1 [A11.035],222
3,CCOC(=O)C(C#N)c1c([N+](=O)[O-])c(=O)n(-c2ccccc2)c2ccccc12 (stereo not shown) [A11.022],30
4,CN(C)CCCN1CCN(c2nc(N(C)CC(=O)O)c3ncn(Cc4ccc([N+](=O)[O-])cc4)c3n2)CC1 [A11.008],11.8
5,CC(NC(=O)C(=O)N/N=C\c1cc([N+](=O)[O-])ccc1O)c1ccccc1 (stereo not shown) [A11.007],11.4
6,O=C(Cc1ccc([N+](=O)[O-])cc1)N1CCOCC1 [A11.012],19.1

# Same assay, conditions: Table 12; read-out: IC50APN
row,Structure (SMILES),IC50 [µM]
1,CCOC(=O)c1ccc(-c2ccc(/C=C3\C(=O)N(CCO)C(=O)C(C#N)=C3C)o2)cc1 [A12.004],2.7
2,CCOC(=O)C(NC(=O)c1ccccc1)(N1CCC(Cc2ccccc2)CC1)C(F)(F)F (stereo not shown) [A12.049],29.9
3,CSCCC(NC(=O)c1ccc(C(F)(F)F)cc1)C(=O)NO (stereo not shown) [A12.061],51.2
4,CC1=C(C#N)C(=O)N(CC(C)O)C(=O)/C1=C/c1ccc(-c2cccc(Cl)c2C)o1 (stereo not shown) [A12.048],28.6
5,COC(=O)c1ccc(-c2ccc(/C=C3\C(=O)N(CCCO)C(=O)C(C#N)=C3C)o2)cc1 [A12.005],5

# Same assay, conditions: Table 13; read-out: IC50APN
row,Structure (SMILES),IC50 [µM]
1,C=CCN1C(=O)C(C#N)=C(C)/C(=C\c2ccc(-c3cc(C)c(C)cc3[N+](=O)[O-])o2)C1=O [A13.015],29.3
2,CCCOC(=O)c1cc(-c2ccc(/C=C3\C(=O)N(CCO)C(=O)C(C#N)=C3C)o2)ccc1Cl [A13.023],54
